Drawing on patent US10844032B2, “Substituted benzofuran, benzothiophene and indole Mcl-1 inhibitors” (Vanderbilt University, priority 2012, dated 2020), this text covers Ki for 31 compounds.

Molecules are shown by their SMILES. Like-named read-outs stand apart in the source and are kept apart here.

The assay deals with recombinant Mcl-1 (residues 172-327) (Homo sapiens (Human), UniProt Q07820). The assay can be described thus: Bak peptide fluorescence polarization anisotropy competition assay, Mcl-1. The class given is binding. The note with it: read-out: Ki for inhibition of Mcl-1. A general note: In fluorescence polarisation assays a small probe gives low polarisation when free and higher when bound to something large.

Setting [1] is: Table 2, Ki range, FITC-Bak peptide 10 nM, Mcl-1 14 nM.

recombinant Mcl-1 (residues 172-327), sequence (Q07820 172-327): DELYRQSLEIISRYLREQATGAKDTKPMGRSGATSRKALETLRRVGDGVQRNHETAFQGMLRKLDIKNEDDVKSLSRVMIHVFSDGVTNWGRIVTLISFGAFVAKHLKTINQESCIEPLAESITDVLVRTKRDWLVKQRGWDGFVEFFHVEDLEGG

As usually defined, the Ki is the equilibrium dissociation constant of an inhibitor or competing ligand from its target. For the compound `CS(=O)(=O)NC(=O)c1[nH]c2cc(Br)ccc2c1CCCOc1cccc2ccccc12` [Example 114, 6-bromo-N-(methylsulfonyl)-3-(3-(naphthalen-1-yloxy)propyl)-1H-indole-2-carboxamide], the Ki is 301 to 500 nM. `Cc1ccncc1-c1cccc2c(CCCOc3cc(C)c(Cl)c(C)c3)c(C(=O)NS(=O)(=O)c3ccccc3)[nH]c12` [Example 89, 3-(3-(4-chloro-3,5-dimethylphenoxy)propyl)-7-(4-methylpyridin-3-yl)-N-(phenylsulfonyl)-1H-indole-2-carboxamide]: the Ki under setting [1] is no more than 100 nM.

Regarding `Cc1cc(OCCCc2c(C(=O)NS(=O)(=O)c3ccccc3)[nH]c3c(-c4ccco4)cccc23)cc(C)c1Cl` [Example 86, 3-(3-(4-chloro-3,5-dimethylphenoxy)propyl)-7-(furan-2-yl)-N-(phenylsulfonyl)-1H-indole-2-carboxamide], the Ki is 101 to 299 nM. As to `COC(=O)c1ccc(S(=O)(=O)NC(=O)c2[nH]c3cc(Cl)ccc3c2CCCOc2cc(C)c(Cl)c(C)c2)o1` [Example 259], the Ki was 101 to 299 nM. Turning to `Cc1cc(OCCCc2c(C(=O)NS(=O)(=O)C3CCN(C(=O)C4CCCCC4)CC3)[nH]c3cc(Cl)ccc23)cc(C)c1Cl` [Example 212, 6-chloro-3-(3-(4-chloro-3,5-dimethylphenoxy)propyl)-N-((1-(cyclohexanecarbonyl)piperidin-4-yl)sulfonyl)-1H-indole-2-carboxamide], the Ki was in the range of 301 to 500 nM. Regarding `CS(=O)(=O)NC(=O)c1[nH]c2ccc(Cl)cc2c1CCCOc1cccc2ccccc12` [Example 111, 5-chloro-N-(methylsulfonyl)-3-(3-(naphthalen-1-yloxy)propyl)-1H-indole-2-carboxamide], the Ki fell in the range of 1000 to 9990 nM. For `Cc1cccc(Cn2cccc2C(=O)NCCS(=O)(=O)NC(=O)c2[nH]c3cc(Cl)ccc3c2CCCOc2cc(C)c(Cl)c(C)c2)c1` [Example 245, 6-chloro-3-(3-(4-chloro-3,5-dimethylphenoxy)propyl)-N-((2-(1-(3-methylbenzyl)-1H-pyrrole-2-carboxamido)ethyl)sulfonyl)-1H-indole-2-carboxamide], the Ki is 101 to 299 nM. Regarding `Cc1cc(OCCCc2c(C(=O)NS(=O)(=O)c3ccccc3)[nH]c3c(-c4c(C)n[nH]c4C)cccc23)cc(C)c1Cl` [Example 305, 3-(3-(4-chloro-3,5-dimethylphenoxy)propyl)-7-(3,5-dimethyl-1H-pyrazol-4-yl)-N-(phenylsulfonyl)-1H-indole-2-carboxamide], the Ki under setting [1] was no more than 100 nM. Still for that read-out and setting: for `Cc1cc(OCCCc2c(C(=O)NS(=O)(=O)c3ccccc3)[nH]c3c(-c4ncccc4C(F)(F)F)cccc23)cc(C)c1Cl` [Example 102, 3-(3-(4-chloro-3,5-dimethylphenoxy)propyl)-N-(phenylsulfonyl)-7-(3-(trifluoromethyl)pyridin-2-yl)-1H-indole-2-carboxamide] the value was no more than 100 nM. For the compound `Cc1cc(OCCCc2c(C(=O)NS(C)(=O)=O)[nH]c3c(-c4c(CO)nn(C)c4C)cccc23)cc(C)c1Cl` [Example 126, 3-(3-(4-chloro-3,5-dimethylphenoxy)propyl)-7-(3-(hydroxymethyl)-1,5-dimethyl-1H-pyrazol-4-yl)-N-(methylsulfonyl)-1H-indole-2-carboxamide], the Ki lay in the range of 101 to 299 nM. On to `Cc1cc(OCCCc2c(C(=O)NS(=O)(=O)CCNC(=O)c3cccc(Oc4ccccc4)c3)n(Cc3cccnc3)c3cc(Cl)ccc23)cc(C)c1Cl` [Example 276, 6-chloro-3-(3-(4-chloro-3,5-dimethylphenoxy)propyl)-N-((2-(3-phenoxybenzamido)ethyl)sulfonyl)-1-(pyridin-3-ylmethyl)-1H-indole-2-carboxamide], for which the Ki fell in the range of 301 to 500 nM. The same measure, in the same setting: as for `Cc1cc(OCCCc2c(C(=O)NS(C)(=O)=O)[nH]c3cc(C(F)(F)F)ccc23)ccc1Cl` [Example 77, 3-(3-(4-chloro-3-methylphenoxy)propyl)-N-(methylsulfonyl)-6-(trifluoromethyl)-1H-indole-2-carboxamide], the figure is 301 to 500 nM; as for `O=C(O)c1oc2ccccc2c1CCc1cccc2ccccc12` [Example 23, 3-(2-(naphthalen-1-yl)ethyl)benzofuran-2-carboxylic acid], 10000 to 50000 nM. Still for that read-out and setting: as for `Cc1cccc(OCCCc2c(C(=O)NS(C)(=O)=O)[nH]c3ccccc23)c1` [Example 31, N-(methylsulfonyl)-3-(3-(m-tolyloxy)propyl)-1H-indole-2-carboxamide], the figure is 10000 to 50000 nM; as for `CC(=O)NCCS(=O)(=O)NC(=O)c1[nH]c2cc(Cl)ccc2c1CCCOc1cc(C)c(Cl)c(C)c1` [Example 251, N-((2-acetamidoethyl)sulfonyl)-6-chloro-3-(3-(4-chloro-3,5-dimethylphenoxy)propyl)-1H-indole-2-carboxamide], 101 to 299 nM. Still for that read-out and setting: as for `Cc1cc(OCCCc2c(C(=O)NS(=O)(=O)CCNC(=O)C3CCCCC3)[nH]c3ccccc23)cc(C)c1Cl` [Example 150, 3-(3-(4-chloro-3,5-dimethylphenoxy)propyl)-N-((2-(cyclohexanecarboxamido)ethyl)sulfonyl)-1H-indole-2-carboxamide], the figure is 101 to 299 nM. In the case of `Cc1cc(OCCCc2c(C(=O)NS(=O)(=O)CCNC(=O)c3ccc(Oc4ccccc4)cc3)[nH]c3ccccc23)cc(C)c1Cl` [Example 166, 3-(3-(4-chloro-3,5-dimethylphenoxy)propyl)-N-((2-(4-phenoxybenzamido)ethyl)sulfonyl)-1H-indole-2-carboxamide], the Ki lay within 301 to 500 nM. On the same count and under the same terms, as for `COc1cccc(OCCCc2c(C(=O)NS(C)(=O)=O)[nH]c3cc(Cl)ccc23)c1` [Example 108, 6-chloro-3-(3-(3-methoxyphenoxy)propyl)-N-(methylsulfonyl)-1H-indole-2-carboxamide], the figure is 1000 to 9990 nM; as for `Cc1cc(OCCCc2c(C(=O)NS(=O)(=O)c3ccc(C(=O)N4CCOCC4)n3C)[nH]c3cc(Cl)ccc23)cc(C)c1Cl` [Example 267, 6-chloro-3-(3-(4-chloro-3,5-dimethylphenoxy)propyl)-N-((1-methyl-5-(morpholine-4-carbonyl)-1H-pyrrol-2-yl)sulfonyl)-1H-indole-2-carboxamide], 101 to 299 nM; as for `Cc1cc(OCCCc2c(C(=O)NS(=O)(=O)Cc3ccccc3)[nH]c3cc(Cl)ccc23)cc(C)c1Cl` [Example 66, N-(benzylsulfonyl)-6-chloro-3-(3-(4-chloro-3,5-dimethylphenoxy)propyl)-1H-indole-2-carboxamide], 101 to 299 nM.

As to `Cc1cc(OCCCc2c(C(=O)NS(=O)(=O)CCCNC(=O)c3cccn3Cc3ccccc3)[nH]c3cc(Cl)ccc23)cc(C)c1Cl` [Example 258, N-((3-(1-benzyl-1H-pyrrole-2-carboxamido)propyl)sulfonyl)-6-chloro-3-(3-(4-chloro-3,5-dimethylphenoxy)propyl)-1H-indole-2-carboxamide], the Ki is 101 to 299 nM. In the case of `Cc1cc(OCCCc2c(C(=O)NS(=O)(=O)CCNC(=O)c3ccncc3)[nH]c3ccccc23)cc(C)c1Cl` [Example 153, 3-(3-(4-chloro-3,5-dimethylphenoxy)propyl)-N-((2-(isonicotinamido)ethyl)sulfonyl)-1H-indole-2-carboxamide], the Ki lay in the range of 1000 to 9990 nM.

Regarding `Cc1cc(OCCCc2c(C(=O)NS(C)(=O)=O)[nH]c3cccc(C(F)(F)F)c23)ccc1Cl` [Example 80, 3-(3-(4-chloro-3-methylphenoxy)propyl)-N-(methylsulfonyl)-4-(trifluoromethyl)-1H-indole-2-carboxamide], the Ki was in the range of 101 to 299 nM. As to `CS(=O)(=O)NC(=O)c1[nH]c2ccccc2c1CCCOc1ccc(C(F)(F)F)cc1` [Example 34, N-(methylsulfonyl)-3-(3-(4-(trifluoromethyl)phenoxy)propyl)-1H-indole-2-carboxamide], the Ki was 10000 to 50000 nM. Same read-out and setting: for `COc1ccc(Oc2cccc(S(=O)(=O)NC(=O)c3[nH]c4cc(Cl)ccc4c3CCCOc3cc(C)c(Cl)c(C)c3)c2)cc1` [Example 220, 6-chloro-3-(3-(4-chloro-3,5-dimethylphenoxy)propyl)-N-((3-(4-methoxyphenoxy)phenyl)sulfonyl)-1H-indole-2-carboxamide] the value was 101 to 299 nM. As to `O=C(NS(=O)(=O)C1CC1)c1sc2ccccc2c1CCCOc1cccc2ccccc12` [Example 67, N-(cyclopropylsulfonyl)-3-(3-(naphthalen-1-yloxy)propyl)benzo[b]thiophene-2-carboxamide], the Ki was 1000 to 9990 nM.

As to `Cc1cc(OCCCc2c(C(=O)NS(=O)(=O)CCNC(=O)c3cc(C)n(Cc4ccncc4)c3C)[nH]c3ccccc23)cc(C)c1Cl` [Example 195, 3-(3-(4-chloro-3,5-dimethylphenoxy)propyl)-N-((2-(2,5-dimethyl-1-(pyridin-4-ylmethyl)-1H-pyrrole-3-carboxamido)ethyl)sulfonyl)-1H-indole-2-carboxamide], the Ki fell in the range of 101 to 299 nM. Same read-out and setting: as for `Cc1cc(OCCCc2c(C(=O)NS(=O)(=O)CCNC(=O)c3ccno3)[nH]c3ccccc23)cc(C)c1Cl` [Example 154, N-(2-(N-(3-(3-(4-chloro-3,5-dimethylphenoxy)propyl)-1H-indole-2-carbonyl)sulfamoyl)ethyl)isoxazole-5-carboxamide], the figure is 501 to 999 nM; as for `Cc1cc(OCCCc2c(C(=O)NS(=O)(=O)CCNC(=O)CCc3ccccc3)[nH]c3ccccc23)cc(C)c1Cl` [Example 164, 3-(3-(4-chloro-3,5-dimethylphenoxy)propyl)-N-((2-(3-phenylpropanamido)ethyl)sulfonyl)-1H-indole-2-carboxamide], 101 to 299 nM.

In the case of `Cc1cc(OCCCc2c(C(=O)NS(=O)(=O)CCNC(=O)c3cccn3Cc3ccccc3)[nH]c3ccccc23)cc(C)c1Cl` [Example 200, N-((2-(1-benzyl-1H-pyrrole-2-carboxamido)ethyl)sulfonyl)-3-(3-(4-chloro-3,5-dimethylphenoxy)propyl)-1H-indole-2-carboxamide], the Ki was 101 to 299 nM.

Consider `Cc1cc(OCCCc2c(C(=O)NS(=O)(=O)CCNC(=O)Cc3cn(C)c4ccccc34)[nH]c3cc(Cl)ccc23)cc(C)c1Cl` [Example 235, 6-chloro-3-(3-(4-chloro-3,5-dimethylphenoxy)propyl)-N-((2-(2-(1-methyl-1H-indol-3-yl)acetamido)ethyl)sulfonyl)-1H-indole-2-carboxamide], for which the inhibition constant (Ki) was in the range of 101 to 299 nM.
